The values that follow come from patent publication US20130017198A1, “MANIPULATION OF CALCIUM CHANNELS TO REGULATE AFTER-DEPOLARIZATION EVENTS IN CARDIAC MYOCYTES” (THE UAB RESEARCH FOUNDATION, priority 2010, published 2013).

“Also recorded” adds a separate entry of the source. Where two headings read alike, the source gives them in different places.

Test [1] concerns left atrial appendage (LAA). Briefly: ATX-II-induced after-contractions (mechanical activity) in paced superfused rat left atrial appendage. The protocol:
(§1) To determine whether ATX-II prolongs action potential duration and provokes after-depolarization and after-contractions, paced isolated rat LAA were superfused at 30° C., impaled with glass microelectrodes, and their action potentials were recorded. ATX-II was then added to the superfusate at about 30 nM and action potentials were recorded again.
The LAA was externally paced at 1 Hz throughout.
A series of experiments was performed to test the hypothesis that the calcium source for after-depolarization is the ARC channel. To test whether after-contractions and after-depolarization require ARC or SOCC activity, experiments were performed with the ARC channel inhibitor LOE-908 and with the SOCC inhibitor SKF-96365. Rat LAA were superfused at 30° C. and exposed to ˜30 nM ATX-II.

Test [2] deals with T1, store-operated calcium channel (SOCC) (Rattus norvegicus, UniProt Q5M848).
T1 construct: from tissue; host or cells: rat left atrial appendage (LAA) muscle
Briefly: Effect on store-operated calcium channel activity.

For a further test, the target named is T2, ARC channel (Rattus norvegicus, UniProt Q5M848+Q6AXR8).
T2 construct: from tissue; host or cells: rat left atrial appendage (LAA) muscle
Kind of test: Effect on ARC channel activity.

Test [3] concerns left atrial appendage (LAA). Briefly: Abnormal automatic activity of LAA at high ATX-II concentration. More on the design: species or system rat. On the procedure:
Although moderate concentrations of ATX-II appear to cause after-contractions, high concentrations of ATX-II cause abnormal automatic activity. To further test the hypothesis that after-contractions occur via a separate mechanism from abnormal automatic activity, LAA were exposed to high concentrations (60 nM) of ATX-II. The LAA were then exposed to one of 40 μM LOE-908 without pacing, 20 μM SKF-96365 with 1 Hz pacing, or 40 μM SKF-96365 with 1 Hz pacing.

In test [4] the test system is left atrial appendage (LAA). Briefly: Action potential recording / after-depolarization in paced superfused rat LAA exposed to ATX-II. To be noted: for action potential duration: ~30 nM ATX-II plus LOE-908 or SKF-96365.
From the text: For example, isolated superfused muscles can be impaled with conventional glass microelectrodes of 10 to 30 MΩ resistance; these microelectrodes are filled with a solution of 3 M potassium chloride. Microelectrodes are routinely mounted on 30 μm silver-silver chloride spiral wire to allow for freedom of motion. Following the successful impalement of an individual myocyte, action potentials can be recorded with DC coupling at the center of the ring as the difference in voltage between the intracellular microelectrode and the extracellular silver-silver chloride reference electrode. Electrical signals are passed through a high-impedance capacitance-compensation preamplifier and are recorded on a personal computer at a sampling rate of […]. Subsequent data analysis of the action potentials of these muscles is performed using standard software (for an example of such a protocol, see Huang J et al., “Restitution properties during ventricular fibrillation in the in situ swine heart” Circulation 110:3161-3167 (2004), which is hereby incorporated by reference only for such teaching).
as §1
A series of experiments was performed to test the hypothesis that the calcium source for after-depolarization is the ARC channel. To test whether after-contractions and after-depolarization require ARC or SOCC activity, experiments were performed with the ARC channel inhibitor LOE-908 and with the SOCC inhibitor SKF-96365. Rat LAA were superfused at 30° C. and exposed to ˜30 nM ATX-II. After 10-15 minutes, these muscles produced steady-state after-contractions, prolonged action potential duration and after-depolarization as shown previously.

For test [5], the system named is left atrial appendage (LAA). Kind of test: Abnormal automatic activity produced by 2-aminoethoxy diphenylborate (SOCC activator) in calcium-loaded LAA. To be noted: calcium-loaded LAA treated with 2-aminoethoxy diphenylborate. The protocol: To further test the hypothesis that the calcium source for after-depolarization is not the SOCC, calcium-loaded LAA were treated with 2-aminoethoxy diphenylborate (an activator of the SOCC) to produce abnormal automatic activity. The LAA were then treated with either LOE-908 or SKF-96365.

For test [6], the system named is isolated rat cardiac muscle. Kind of test: After-contractions in isolated rat cardiac muscle incubated with ATX-II and CPLA2 inhibitors. The following applies: for IC50: isolated rat cardiac muscle incubated with ATX-II, read-out: IC50 (frequency of aftercontractions). On the procedure: In a separate experiment, isolated rat cardiac muscle was incubated with ATX-II in the presence of varying concentrations of amylcinnamoyl-anthranilic acid.

Another test has as its system CPLA2 activity in vivo. The following applies: cited from earlier work.
The target of a further test is T3, CPLA2 (Homo sapiens, UniProt P47712).
T3 sequence (P47712 1-749): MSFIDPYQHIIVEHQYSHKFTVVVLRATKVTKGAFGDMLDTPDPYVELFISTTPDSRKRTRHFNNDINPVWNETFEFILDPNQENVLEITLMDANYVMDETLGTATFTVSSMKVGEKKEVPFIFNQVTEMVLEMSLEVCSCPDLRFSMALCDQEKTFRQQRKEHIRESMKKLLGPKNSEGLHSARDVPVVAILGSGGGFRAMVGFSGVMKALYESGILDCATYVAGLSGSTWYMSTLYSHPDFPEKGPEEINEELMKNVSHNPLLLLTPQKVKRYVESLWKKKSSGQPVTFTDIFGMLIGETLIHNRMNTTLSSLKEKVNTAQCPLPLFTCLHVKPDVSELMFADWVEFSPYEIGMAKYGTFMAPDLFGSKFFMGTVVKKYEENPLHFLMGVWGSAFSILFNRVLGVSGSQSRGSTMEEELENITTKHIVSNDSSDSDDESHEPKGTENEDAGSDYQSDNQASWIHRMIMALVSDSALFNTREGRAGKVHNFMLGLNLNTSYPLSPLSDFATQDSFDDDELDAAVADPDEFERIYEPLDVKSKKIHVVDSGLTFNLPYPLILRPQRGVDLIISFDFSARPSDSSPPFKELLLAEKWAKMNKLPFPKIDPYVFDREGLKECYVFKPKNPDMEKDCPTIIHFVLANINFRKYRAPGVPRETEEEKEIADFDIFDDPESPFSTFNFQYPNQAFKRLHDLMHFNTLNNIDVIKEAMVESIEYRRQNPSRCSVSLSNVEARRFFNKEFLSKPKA
To be noted: selective inhibitor of CPLA2; cited from earlier work.

Setting [7] is: 0.6 μM ryanodine, after steady-state ATX-II after-contractions.
Where [8] appears, read: increasing concentrations, ~30 nM ATX-II, rat LAA at 30° C.
The mark [9] stands for this setting: increasing concentrations, ~30 nM ATX-II, data not shown.
Setting [10] is: LAA pre-treated with the compound, then ATX-II.

T2 sequence (Q5M848 whole entry, other chains not shown): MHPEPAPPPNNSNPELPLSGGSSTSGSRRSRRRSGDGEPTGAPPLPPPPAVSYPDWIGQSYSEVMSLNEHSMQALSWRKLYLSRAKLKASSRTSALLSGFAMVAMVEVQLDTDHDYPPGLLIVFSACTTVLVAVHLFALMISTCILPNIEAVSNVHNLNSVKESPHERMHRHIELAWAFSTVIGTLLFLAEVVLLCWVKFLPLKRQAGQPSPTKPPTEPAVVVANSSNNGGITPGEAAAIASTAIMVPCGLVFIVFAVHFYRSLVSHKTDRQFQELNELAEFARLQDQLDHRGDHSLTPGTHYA
T1 sequence (Q5M848 whole entry): as the sequence (Q5M848 whole entry, other chains not shown) above

With ryanodine, in test [1] (setting [7]), the after-contractions result was “after-contractions continued to occur” and the mechanical force result is on record as “greatly diminished mechanical force”.
As to `COc1cc2c(cc1OC)C(C(C(=O)N(CCc1ccc(OC)c(OC)c1OC)CCc1ccc(OC)c(OC)c1OC)c1ccccc1)=NCC2` (stereo not drawn) [LOE-908], in test [2], the “store-operated calcium channel (SOCC) activity” value is recorded as “no effect on the activity of the store-operated calcium channel”. Moreover, the ectopic contractions entry in test [1] (20 μM) is on record as “no ectopic contractions are observed”. Besides, in [1] (cardiac muscle), the “concentration as low as which ectopic contractions are effectively reduced” value is 1 µM. The after-contractions entry in [1] (setting [8]) is “suppressed after-contractions in a dose-dependent manner”. The ARC channel activity result on ARC channel is given as “inhibit the activity of the ARC channel”. Further, the abnormal automatic activity result in test [3] (60 nM ATX-II, 40 μM LOE-908 without pacing) is listed as “failed to suppress abnormal automatic activity”. In [4], the “concentration as low as which after-depolarization is effectively reduced” value amounted to 1 µM and the action potential duration entry is “remained prolonged”. Besides, in test [4] (20 μM), the after-depolarization result is “no after-depolarization is observed”. Further, in test [4] (setting [9]), the after-depolarization result was “The same was observed”.
For the compound `COc1ccc(S(=O)(=O)N(CCO)c2ccccc2CN(C)C/C=C/c2ccc(Cl)cc2)cc1` [KN-93], the after-contractions entry in test [1] (setting [10]) was “do not produce after-contractions; also recorded: suppression of after-contractions”.
`COc1ccc(CCCOC(Cn2ccnc2)c2ccc(OC)cc2)cc1` (stereo not drawn) [SKF-96365]: the “rate of spontaneous contractions caused by activation of the SOCC” value in test [5] is “reduces the rate of spontaneous contractions”. Also, the after-contractions entry in [1] (setting [8]) is “suppressed after-contractions in a dose-dependent manner”. For the same compound, the abnormal automatic activity entry in test [3] (60 nM ATX-II, 20 μM or 40 μM SKF-96365 with 1 Hz pacing) is “either reduced or eliminated abnormal automatic activity”. Besides, the after-depolarization result in test [4] (setting [9]) was “The same was observed”. The action potential duration result in test [4] is reported as “remained prolonged”.
As to methyl-β-cyclodextrin, in test [2], the “store-operated calcium channel (SOCC) activity” value was “only reducing the activity of the SOCC to a minor degree”. Further, the after-contractions result in test [1] (10 mM MβC superfusion then wash, ~30 nM ATX-II, 20 min recording) is given as “produced no after-contractions”. Besides, the “concentration as low as which ectopic contractions are effectively eliminated” value in test [1] (cardiac muscle) came out at 10 mM. Moreover, the ARC channel activity entry at ARC channel is listed as “completely suppresses ARC channel activity”. The “concentration as low as which after-depolarization is effectively eliminated” value in test [4] is listed as 10 mM.
On to `COc1cccc2c1cc([N+](=O)[O-])c1c(C(=O)O)cc3c(c12)OCO3` [aristolochic acid, 8-methoxy-6-nitrophenanthro[3,4-d][1,3]dioxole-5-carboxylic acid], for which, in test [6], the after contractions entry is on record as “suppress after contractions” and the half-inhibitory concentration (IC50) came to 31 ± 5 µM. The after-depolarization entry in test [4] is on record as “effectively inhibit after-depolarization; also recorded: suppress after-depolarization”.
Consider `COc1ccc(S(=O)(=O)Nc2ccccc2CN(C)C/C=C/c2ccc(Cl)cc2)cc1` [KN-92], for which the after-contractions entry in [1] (setting [10]) is recorded as “does not prevent after-contractions; also recorded: does not suppress after-contractions”.
For the compound `CCCCCc1ccc(/C=C/C(=O)Nc2ccccc2C(=O)O)cc1` [ACA], in [6], the after contractions result is listed as “suppress after contractions”, the “concentration as low as which after contractions are suppressed” value was 10 µM and the IC50 was 10 ± 4.5 µM. Further, the frequency of aftercontractions entry in test [6] (0-50 μM of ACA) was “decrease with increasing concentration”. For the same compound, in test [4], the after-depolarization result is “suppress after-depolarization” and the “concentration as low as which after-depolarization is suppressed” value was 10 µM. The after-depolarization result in test [4] (listed as amylcinnamoyl-anthranilic acid) is listed as “effectively inhibit after-depolarization”.
On to `O=C(CCc1ccc(OCCS(=O)(=O)CCOC(c2ccc(Cl)cc2)c2ccc(Cl)cc2)cc1)C(F)(F)F` [BMS-229724, 4-[4-[2-[2-[bis(4-chlorophenyl)methoxy]ethyl-sulfonyl]ethoxy]phenyl]-1,1,1-trifluoro-2-butanone], for which, in the test on CPLA2 activity in vivo, the “CPLA2 activity in vivo / skin inflammation” value is given as “suppression of skin inflammation”. Moreover, on CPLA2, the IC50 is 2.8 µM.
For the compound “ATX-II: Anemonia sulcata toxin, sodium channel regulator that increases the late sodium current; arrhythmic agent”, in test [1], the “concentration inducing arrhythmia and after-depolarization” value lay within 5 to 60 nM. In addition, the “after-contractions following each paced contraction” value in [1] (30 nM ATX-II, LAA paced at 1 Hz) was “after-contractions are observed”. In addition, the “concentration below which the ability to induce arrhythmia starts to decrease” value in test [1] (KH buffer with added glucose) was 10 to 50 nM. Besides, the “rate of rapid contraction in the absence of pacing” value in test [3] (60 nM ATX-II, FIG. 8A) is on record as 4 Hz. For the same compound, the “rate of automatic activity persisting in the absence of pacing” value in test [3] (60 nM ATX-II, FIG. 8B) is given as 2.7-3.3 Hz. Further, the after-contractions entry in [3] (60 nM ATX-II, left atria paced at 1 Hz) was “displayed after-contractions”. In [3] (higher concentration of ATX-II), the abnormal automatic activity entry was “displayed abnormal automatic activity”. In addition, the “action potential duration and early after-depolarization” value in test [4] (30 nM ATX-II, paced isolated rat LAA superfused at 30° C.) is “produced prolonged action potential duration and produced early after-depolarization during repolarization”.
Consider `COc1ccc(CCN(C)CCCC(C#N)(c2ccc(OC)c(OC)c2)C(C)C)cc1OC` (stereo not drawn) [verapamil], for which the production of after-contractions result in [1] (10 μM verapamil, paced at 1 Hz, steady-state ATX-II after-contractions) is given as “did not affect the production of after-contractions”.
